Where two headings read alike, the source gives them in different places.
How the values were obtained:
[1] = system: human peripheral blood mononuclear cells (PBMC); assay: PBMC cytotoxicity assay (CellTiter-Glo); type: cell-based; conditions: cytotoxicity in stimulated PBMC, recorded as pCC50
[2] = target: indoleamine 2, 3-dioxygenase (IDO1) (Homo sapiens, UniProt P14902); assay: IDO1 HeLa RapidFire MS Assay (kynurenine by mass spectrometry); type: cell-based; conditions: HeLa cells stimulated with IFN-γ, 2 days; recorded as pIC50; read-out: IDO1 HeLa PXC50 (converted)
Method: IDO1 HeLa RapidFire MS Assay
(§1) Compounds of the present invention were tested via high-throughput cellular assays utilizing detection of kynurenine via mass spectrometry and cytotoxicity as end-points. […] Compounds with IDO1 inhibitory properties decreased the amount of kynurenine produced by the cells via the tryptophan catabolic pathway. Cellular toxicity due to the effect of compound treatment was measured using CellTiter-Glo® reagent (CTG) (Promega Corporation, Madison, Wis.), which is based on luminescent detection of ATP, an indicator of metabolically active cells.
(§2) In preparation for the assays, test compounds were serially diluted 3-fold in DMSO from a typical top concentration of 1 mM or 5 mM and plated at 0.5 μL in 384-well, polystyrene, clear bottom, tissue culture treated plates with lids (Greiner Bio-One, Kremsmünster, Austria) to generate 11-point dose response curves. Low control wells (0% kynurenine or 100% cytotoxicity) contained either 0.5 μL of DMSO in the presence of unstimulated (−IFN-γ) HeLa cells for the mass spectrometry assay or 0.5 μL of DMSO in the absence of cells for the cytotoxicity assay, and high control wells (100% kynurenine or 0% cytotoxicity) contained 0.5 μL of DMSO in the presence of stimulated (+IFN-γ) HeLa cells for both the mass spectrometry and cytotoxicity assays.
(§3) Frozen stocks of HeLa cells were washed and recovered in DMEM high glucose medium with HEPES (Thermo Fisher Scientific, Inc., Waltham, Mass.) supplemented with 10% v/v certified fetal bovine serum (FBS) (Thermo Fisher Scientific, Inc., Waltham, Mass.), and 1× penicillin-streptomycin antibiotic solution (Thermo Fisher Scientific, Inc., Waltham, Mass.). The cells were diluted to 100,000 cells/mL in the supplemented DMEM medium. 50 μL of either the cell suspension, for the mass spectrometry assay, or medium alone, for the cytotoxicity assay, were added to the low control wells, on the previously prepared 384-well compound plates, resulting in 5,000 cells/well or 0 cells/well respectively. IFN-γ was added to the remaining cell suspension at a final concentration of 10 nM, and 50 μL of the stimulated cells were added to all remaining wells on the 384-well compound plates. The plates, with lids, were then placed in a 37° C., 5% CO2 humidified incubator for 2 days.
(§4) Following incubation, the 384-well plates were removed from the incubator and allowed to equilibrate to room temperature for 30 minutes. For the cytotoxicity assay, CellTiter-Glo® was prepared according to the manufacturer's instructions, and 10 μL were added to each plate well. After a twenty minute incubation at room temperature, luminescence was read on an EnVision® Multilabel Reader (PerkinElmer Inc., Waltham, Mass.). For the mass spectrometry assay, 10 μL of supernatant from each well of the compound-treated plates were added to 40 μL of acetonitrile, containing 10 μM of an internal standard for normalization, in 384-well, polypropylene, V-bottom plates (Greiner Bio-One, Kremsmünster, Austria) to extract the organic analytes. Following centrifugation at 2000 rpm for 10 minutes, 10 μL from each well of the acetonitrile extraction plates were added to 90 μL of sterile, distilled H2O in 384-well, polypropylene, V-bottom plates for analysis of kynurenine and the internal standard on the RapidFire 300 (Agilent Technologies, Santa Clara, Calif.) and 4000 QTRAP MS (SCIEX, Framingham, Mass.). MS data were integrated using Agilent Technologies' RapidFire Integrator software, and data were normalized for analysis as a ratio of kynurenine to the internal standard.

[3] = system: human epithelial HeLa cells; assay: HeLa cytotoxicity assay (CellTiter-Glo); type: cell-based; conditions: cytotoxicity in stimulated HeLa cells, recorded as pCC50
Method: as §1, §2, §3, §4

ePL tagged IDO1 = target: T1, ePL tagged IDO1 (Homo sapiens, UniProt P14902); assay: CETSA (Cellular Thermal Shifting assay); type: binding; conditions: Hela cells, 3 hours at 37° C., heated at 53° C. for 3 min
T1 construct: expressed in transfected cells; host or cells: HeLa cells transduced with BacMam virus
Method: Cellular Thermal Shifting assays were used to directly monitor the ligand binding to target proteins in cells. Hela cells were transduced with BacMam virus expressing ePL tagged IDO1 overnight. The cells were then plated over the compounds for 3 hours at 37° C. in cell culture medium containing 1% FBS. The plates were then sealed and heated at 53° C. for 3 min. InCell Hunter reagents were added and luminescence was read in 90 min.

indoleamine 2, 3-dioxygenase (IDO1), sequence (P14902 whole entry): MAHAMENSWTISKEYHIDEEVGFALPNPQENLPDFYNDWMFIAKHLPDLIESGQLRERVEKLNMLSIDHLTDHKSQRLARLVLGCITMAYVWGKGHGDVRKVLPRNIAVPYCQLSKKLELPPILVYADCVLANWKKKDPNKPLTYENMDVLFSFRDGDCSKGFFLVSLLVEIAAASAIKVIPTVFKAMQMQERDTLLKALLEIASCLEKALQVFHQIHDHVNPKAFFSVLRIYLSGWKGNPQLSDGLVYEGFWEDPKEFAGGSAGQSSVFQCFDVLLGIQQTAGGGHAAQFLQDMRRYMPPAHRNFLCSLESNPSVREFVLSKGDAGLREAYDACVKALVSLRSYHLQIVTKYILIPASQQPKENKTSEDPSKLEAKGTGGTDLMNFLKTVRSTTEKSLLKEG
T1 sequence (P14902 whole entry): as above

For CC(C)CN(CC(C)C)c1ncc(C(C)CC(=O)O)cc1Nc1nc(C(F)(F)F)ns1 (stereo not drawn) [Example 1, 3-(6-(diisobutylamino)-5-((3-(trifluoromethyl)-1,2,4-thiadiazol-5-yl)amino)pyridin-3-yl)butanoic acid], the “PBMC_TOX PXC50” value [1] was under 5.0, the IC50 [2] was 10 nM and the HELA_IDO1_TOX_PXC50 [3] was under 5.
In the case of CC(C)CN(c1ncc([C@H](C)CC(=O)O)cc1Nc1ccc(Cl)nc1)C1CCOCC1 [Example 4, (R)-3-(5-((6-chloropyridin-3-yl)amino)-6-(isobutyl(tetrahydro-2H-pyran-4-yl)amino)pyridin-3-yl)butanoic acid], the “PBMC_TOX PXC50” value [1] is reported as under 5.0, the IC50 [2] is reported as 10 nM and the HELA_IDO1_TOX_PXC50 [3] is reported as under 5.
For CC(C)CN(CC(C)C)c1ncc(C(C)CC(=O)O)cc1Nc1nc(Cl)ns1 (stereo not drawn) [Example 32, 3-{6-[bis(2-methylpropyl)amino]-5-[(3-chloro-1,2,4-thiadiazol-5-yl)amino]pyridin-3-yl}butanoic acid], the “PBMC_TOX PXC50” value [1] was under 5.0, the IC50 [2] was 631 nM and the HELA_IDO1_TOX_PXC50 [3] was under 5.
In the case of CC(C)CN(c1ncc(C(C)CC(=O)O)cc1Nc1ccc(C#N)cn1)C1CCOCC1 (stereo not drawn) [Example 33, 3-{5-[(5-cyanopyridin-2-yl)amino]-6-[(2-methylpropyl)(oxan-4-yl)amino]pyridin-3-yl}butanoic acid], the “PBMC_TOX PXC50” value [1] is reported as under 5.0, the IC50 [2] is reported as 20 nM and the HELA_IDO1_TOX_PXC50 [3] is reported as under 5.
For CC(C)CN(c1ncc([C@H](C)CC(=O)O)cc1Nc1ccc(Cl)c(F)n1)C1CCOCC1 [Example 7, (R)-3-(5-((5-chloro-6-fluoropyridin-2-yl)amino)-6-(isobutyl(tetrahydro-2H-pyran-4-yl)amino)pyridin-3-yl)butanoic acid], the “PBMC_TOX PXC50” value [1] was under 5.0, the IC50 [2] was 12.6 nM and the HELA_IDO1_TOX_PXC50 [3] was under 5.
In the case of CC(C)CN(c1ncc(C(C)CC(=O)O)cc1Nc1nnc(C2CC2)s1)C1CCOCC1 (stereo not drawn) [Example 36, 3-{5-[(5-cyclopropyl-1,3,4-thiadiazol-2-yl)amino]-6-[(2-methylpropyl)(oxan-4-yl)amino]pyridin-3-yl}butanoic acid], the “PBMC_TOX PXC50” value [1] is reported as under 5.0 and the IC50 [2] is reported as 7.94 nM.
C[C@H](CC(=O)O)c1cnc(N(CCCCCNC(=O)OC2CC/C=C/CCC2)C2CCOCC2)c(Nc2ccc(Cl)cn2)c1 (stereo partly drawn) [Example 84, (3R)-3-{5-[(5-chloropyridin-2-yl)amino]-6-{[5-({[(4E)-cyclooct-4-en-1-yloxy]carbonyl}amino)pentyl](oxan-4-yl)amino}pyridin-3-yl}butanoic acid] was tested, and the “PBMC_TOX PXC50” value [1] was under 5.0, the IC50 [2] was 10 nM and the HELA_IDO1_TOX_PXC50 [3] was under 5.
For CC(C)CN(c1ncc([C@H](C)CC(=O)O)cc1Nc1nc(C(F)(F)F)ns1)C1CC(F)(F)C1 [Example 20, (R)-3-(6-((3,3-difluorocyclobutyl)(isobutyl)amino)-5-((3-(trifluoromethyl)-1,2,4-thiadiazol-5-yl)amino)pyridin-3-yl)butanoic acid], the “PBMC_TOX PXC50” value [1] was under 5.0, the IC50 [2] was 12.6 nM and the HELA_IDO1_TOX_PXC50 [3] was under 5.
CC(C)CN(c1ncc([C@H](C)CC(=O)O)cc1Nc1cnc(Cl)nc1)C1CCOCC1 [Example 5, (R)-3-(5-((2-chloropyrimidin-5-yl)amino)-6-(isobutyl(tetrahydro-2H-pyran-4-yl)amino)pyridin-3-yl)butanoic acid] was tested, and the “PBMC_TOX PXC50” value [1] was under 5.0, the IC50 [2] was 15.8 nM and the HELA_IDO1_TOX_PXC50 [3] was under 5.
In the case of C[C@H](CC(=O)O)c1cnc(N(CCCCCN)C2CCOCC2)c(Nc2ccc(Cl)cn2)c1 [Example 83, (3R)-3-{6-[(5-aminopentyl)(oxan-4-yl)amino]-5-[(5-chloropyridin-2-yl)amino]pyridin-3-yl}butanoic acid], the “PBMC_TOX PXC50” value [1] is reported as under 5.0, the IC50 [2] is reported as 10 nM and the HELA_IDO1_TOX_PXC50 [3] is reported as under 5.
With CC(C)CN(c1ncc(C(C)CC(=O)O)cc1Nc1nc(C(F)(F)F)ns1)C1CCOCC1 (stereo not drawn) [Example 31, 3-{6-[(2-methylpropyl)(oxan-4-yl)amino]-5-{[3-(trifluoromethyl)-1,2,4-thiadiazol-5-yl]amino}pyridin-3-yl}butanoic acid] the “PBMC_TOX PXC50” value [1] was under 5.0, the IC50 [2] was 5.01 nM and the HELA_IDO1_TOX_PXC50 [3] was under 5.
For CC(C)CN(c1ncc(-c2ccccc2C(=O)O)cc1Nc1nc(C(F)(F)F)ns1)C1CCOCC1 [Example 29, 2-(6-(isobutyl(tetrahydro-2H-pyran-4-yl)amino)-5-((3-(trifluoromethyl)-1,2,4-thiadiazol-5-yl)amino)pyridin-3-yl)benzoic acid], the “PBMC_TOX PXC50” value [1] was under 5.0, the IC50 [2] was 15.8 nM and the HELA_IDO1_TOX_PXC50 [3] was under 5.
In the case of CC(C)CN(c1ncc(C(C)CC(=O)O)cc1Nc1ccc(Cl)cn1)C1CCOCC1 (stereo not drawn) [Example 35, 3-{5-[(5-chloropyridin-2-yl)amino]-6-[(2-methylpropyl)(oxan-4-yl)amino]pyridin-3-yl}butanoic acid], the “PBMC_TOX PXC50” value [1] is reported as under 5.0, the IC50 [2] is reported as 7.94 nM and the HELA_IDO1_TOX_PXC50 [3] is reported as under 5.
In the case of CC(C)CN(CC(C)C)c1ncc([C@H](C)CC(=O)O)cc1Nc1nc(C(F)(F)F)ns1 [Example 40, (3R)-3-{6-[bis(2-methylpropyl)amino]-5-{[3-(trifluoromethyl)-1,2,4-thiadiazol-5-yl]amino}pyridin-3-yl}butanoic acid], the “PBMC_TOX PXC50” value [1] is reported as under 5.6, the IC50 [2] is reported as 7.94 nM and the HELA_IDO1_TOX_PXC50 [3] is reported as under 5.
For CC(C)CN(c1ncc([C@H](C)CC(=O)O)cc1Nc1ccc(C#N)cn1)C1CCOCC1 [Example 57, (3R)-3-{5-[(5-cyanopyridin-2-yl)amino]-6-[(2-methylpropyl)(oxan-4-yl)amino]pyridin-3-yl}butanoic acid], the “PBMC_TOX PXC50” value [1] was under 5.0, the EC50 (ePL tagged IDO1; first value, read-out: pXC50_1 (converted)) was 5010 nM and the EC50 (ePL tagged IDO1; second value, read-out: pXC50_2 (converted)) was 3090 nM.
CC(C)CN(c1ncc([C@H](C)CC(=O)O)cc1Nc1nc(Cl)ns1)C1CCC(F)(F)CC1 [Example 30, (R)-3-(5-((3-chloro-1,2,4-thiadiazol-5-yl)amino)-6-((4,4-difluorocyclohexyl)(isobutyl)amino)pyridin-3-yl)butanoic acid] was tested, and the “PBMC_TOX PXC50” value [1] was under 5.0, the IC50 [2] was 39.8 nM and the HELA_IDO1_TOX_PXC50 [3] was under 5.
In the case of CC(C)CN(c1ncc(C(C)CC(=O)O)cc1Nc1ccc(C(F)(F)F)cn1)C1CCOCC1 (stereo not drawn) [Example 2, 3-(6-(isobutyl(tetrahydro-2H-pyran-4-yl)amino)-5-((5-(trifluoromethyl)pyridin-2-yl)amino)pyridin-3-yl)butanoic acid], the “PBMC_TOX PXC50” value [1] is reported as under 5.0, the IC50 [2] is reported as 10 nM and the HELA_IDO1_TOX_PXC50 [3] is reported as under 5.
With CC(C)CN(c1ncc(C(C)CC(=O)O)cc1Nc1nc(Cl)ns1)C1CCOCC1 (stereo not drawn) [Example 34, 3-{5-[(3-chloro-1,2,4-thiadiazol-5-yl)amino]-6-[(2-methylpropyl)(oxan-4-yl)amino]pyridin-3-yl}butanoic acid] the “PBMC_TOX PXC50” value [1] was under 5.0, the IC50 [2] was 316 nM and the HELA_IDO1_TOX_PXC50 [3] was under 5.
For CO[C@H]1CC[C@H](N(CC(C)C)c2ncc([C@H](C)CC(=O)O)cc2Nc2nc(C(F)(F)F)ns2)CC1 [Example 26, (R)-3-(6-(isobutyl((1r,4R)-4-methoxycyclohexyl)amino)-5-((3-(trifluoromethyl)-1,2,4-thiadiazol-5-yl)amino)pyridin-3-yl)butanoic acid], the “PBMC_TOX PXC50” value [1] was under 5.0.
